Tests used:
Conditions in all cases: Preemergence
[1] = tested on: morningglory; assay: Test B pre/postemergence morningglory; format: in vivo, Ipomoea hederacea
Procedure, shortened: (§1)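 Test chemicals in a non-phytotoxic solvent mixture with surfactant were sprayed preemergence onto planted seeds and postemergence onto plants 2 to 18 cm tall (1- to 4-leaf stage). After twelve to sixteen days in a greenhouse, injury was visually rated against untreated controls from 0 (no effect) to 10 (complete control).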

[2] = tested on: velvetleaf; assay: Test B pre/postemergence velvetleaf; format: in vivo, Abutilon theophrasti
Procedure, shortened: as §1

[3] = tested on: giant foxtail; assay: Test B pre/postemergence giant foxtail; format: in vivo, Setaria faberii
Procedure, shortened: as §1

[4] = tested on: corn; assay: Test B pre/postemergence corn; format: in vivo, Zea mays
Procedure, shortened: as §1

[5] = tested on: rape; assay: Test B pre/postemergence rape; format: in vivo, Brassica napus
Procedure, shortened: as §1

[6] = tested on: blackgrass; assay: Test B pre/postemergence blackgrass; format: in vivo, Alopecurus myosuroides
Procedure, shortened: as §1

[7] = tested on: purple nutsedge; assay: Test B pre/postemergence purple nutsedge; format: in vivo, Cyperus rotundus
Procedure, shortened: as §1

[8] = tested on: wheat; assay: Test B pre/postemergence wheat; format: in vivo, Triticum aestivum
Procedure, shortened: as §1

[9] = tested on: sugar beet; assay: Test B pre/postemergence sugar beet; format: in vivo, Beta vulgaris
Procedure, shortened: as §1

[10] = tested on: bedstraw; assay: Test B pre/postemergence bedstraw; format: in vivo, Galium aparine
Procedure, shortened: as §1

[11] = tested on: crabgrass; assay: Test B pre/postemergence crabgrass; format: in vivo, Digitaria sanguinalis
Procedure, shortened: as §1

[12] = tested on: wild oat; assay: Test B pre/postemergence wild oat; format: in vivo, Avena fatua
Procedure, shortened: as §1

[13] = tested on: cocklebur; assay: Test B pre/postemergence cocklebur; format: in vivo, Xanthium strumarium
Procedure, shortened: as §1

[14] = tested on: surinam grass; assay: Test B pre/postemergence surinam grass; format: in vivo, Brachiaria decumbens
Procedure, shortened: as §1

[15] = tested on: soybean; assay: Test B pre/postemergence soybean; format: in vivo, Glycine max
Procedure, shortened: as §1

[16] = tested on: pigweed; assay: Test B pre/postemergence pigweed; format: in vivo, Amaranthus retroflexus
Procedure, shortened: as §1

[17] = Rate 62 g/ha, scale of 0 to 10 where 0 is no effect and 10 is complete control
[18] = Rate 125 g/ha, scale of 0 to 10 where 0 is no effect and 10 is complete control
[19] = Rate 250 g/ha, scale 0 (no effect) to 10 (complete control)
[20] = Rate 31 g/ha, visual rating, scale 0 to 10 (0 no effect, 10 complete control)

Question: `CC(=O)NCCn1c(=O)on(C(=O)N(c2ccc(F)cc2)C(C)C)c1=O` [Compound 727] was tested. Which “Morningglory plant response rating” value [1, 17] did it give?
Answer: 0

Question: And the “Plant response rating, Morningglory” value [1, 18]?
Answer: 0

Question: And the “Morningglory plant response rating” value [1, 19]?
Answer: 0

Question: And the “Velvetleaf plant response rating” value [2, 17]?
Answer: 0

Question: And the “Plant response rating, Velvetleaf” value [2, 18]?
Answer: 0

Question: What about the “Velvetleaf plant response rating” value [2, 19] of the same compound?
Answer: 0

Question: What about the “Giant foxtail plant response rating” value [3, 20] of the same compound?
Answer: 5

Question: And the “Giant foxtail plant response rating” value [3, 17]?
Answer: 7

Question: And the “Plant response rating, Giant foxtail” value [3, 18]?
Answer: 7

Question: And the “Giant foxtail plant response rating” value [3, 19]?
Answer: 10

Question: What about the “Corn plant response rating” value [4, 20] of the same compound?
Answer: 0

Question: And the “Corn plant response rating” value [4, 17]?
Answer: 0

Question: And the “Plant response rating, Corn” value [4, 18]?
Answer: 0

Question: And the “Corn plant response rating” value [4, 19]?
Answer: 0

Question: What about the “Rape plant response rating” value [5, 17] of the same compound?
Answer: 0

Question: And the “Plant response rating, Rape” value [5, 18]?
Answer: 0

Question: And the “Rape plant response rating” value [5, 19]?
Answer: 1

Question: And the “Blackgrass plant response rating” value [6, 20]?
Answer: 0

Question: What about the “Blackgrass plant response rating” value [6, 17] of the same compound?
Answer: 0

Question: And the “Plant response rating, Blackgrass” value [6, 18]?
Answer: 7

Question: And the “Blackgrass plant response rating” value [6, 19]?
Answer: 8

Question: What about the “Plant response rating, Nutsedge” value [7, 18] of the same compound?
Answer: 0

Question: What about the “Nutsedge plant response rating” value [7, 19] of the same compound?
Answer: 0

Question: What about the “Wheat plant response rating” value [8, 17] of the same compound?
Answer: 0

Question: And the “Plant response rating, Wheat” value [8, 18]?
Answer: 0

Question: And the “Wheat plant response rating” value [8, 19]?
Answer: 0

Question: And the “Sugarbeets plant response rating” value [9, 17]?
Answer: 0

Question: And the “Plant response rating, Sugarbeets” value [9, 18]?
Answer: 0

Question: And the “Sugarbeets plant response rating” value [9, 19]?
Answer: 0

Question: What about the “Bedstraw plant response rating” value [10, 20] of the same compound?
Answer: 0

Question: And the “Bedstraw plant response rating” value [10, 17]?
Answer: 0

Question: What about the “Plant response rating, Bedstraw” value [10, 18] of the same compound?
Answer: 0

Question: What about the “Bedstraw plant response rating” value [10, 19] of the same compound?
Answer: 0

Question: And the “Crabgrass plant response rating” value [11, 20]?
Answer: 3

Question: And the “Crabgrass plant response rating” value [11, 17]?
Answer: 3

Question: What about the “Plant response rating, Crabgrass” value [11, 18] of the same compound?
Answer: 8

Question: And the “Crabgrass plant response rating” value [11, 19]?
Answer: 9

Question: And the “Wild oats plant response rating” value [12, 17]?
Answer: 0

Question: And the “Plant response rating, Wild oats” value [12, 18]?
Answer: 3

Question: What about the “Wild oats plant response rating” value [12, 19] of the same compound?
Answer: 3

Question: What about the “Cocklebur plant response rating” value [13, 20] of the same compound?
Answer: 0

Question: And the “Cocklebur plant response rating” value [13, 17]?
Answer: 0

Question: What about the “Plant response rating, Cocklebur” value [13, 18] of the same compound?
Answer: 0

Question: And the “Cocklebur plant response rating” value [13, 19]?
Answer: 0

Question: And the “B. signalgrass plant response rating” value [14, 20]?
Answer: 0

Question: And the “B. signalgrass plant response rating” value [14, 17]?
Answer: 0

Question: And the “Plant response rating, B. signalgrass” value [14, 18]?
Answer: 6

Question: What about the “B. signalgrass plant response rating” value [14, 19] of the same compound?
Answer: 7

Question: What about the “Soybean plant response rating” value [15, 17] of the same compound?
Answer: 0

Question: What about the “Plant response rating, Soybean” value [15, 18] of the same compound?
Answer: 0

Question: What about the “Soybean plant response rating” value [15, 19] of the same compound?
Answer: 0

Question: And the “Redroot pigweed plant response rating” value [16, 17]?
Answer: 0

Question: And the “Plant response rating, Redroot pigweed” value [16, 18]?
Answer: 5

Question: What about the “Redroot pigweed plant response rating” value [16, 19] of the same compound?
Answer: 5

Reference: patent publication US6737383B1, “Herbicidal oxadiazolidines” (priority 1999, dated 2004)
